One data set has as its system 4T1.2 tumours. The experiment in a line: 4T1.2 tumour model: tumour growth inhibition. The class given is in vivo, Balb/c mice. The conditions noted are these: day 18, PG545 15 mg/kg weekly, antibody 200 μg intraperitoneally days 1, 4, 8, 11, 15. The procedure: Female Balb/c mice (Age 8 weeks; Walter and Eliza Hall Institute of Medical Research (WEHI), Victoria Australia) were inoculated in the intramammary fatpad with 1×10^5 4T1.2 cells in phosphate buffered saline. 4T1.2 is a mouse mammary tumour model.
The experiment was ended on day 18 or earlier if an ethical endpoint was met. Blood was collected via cardiac bleed and serum was prepared and frozen at −80° C.
The percentage tumour growth inhibition was determined according to the following formula: 100×(1−ΔT/ΔC) where ΔC and ΔT were calculated by subtracting the mean tumour volume in each group on day 1 of treatment from the mean tumour volume on the day of analysis. Statistical analysis of the in vivo data was performed using Graph Pad Prism Version 6.0 (Graph Pad La Jolla, Calif.). An ANOVA analysis was performed followed by Dunnett's post hoc test to compare the tumour growth in the treated groups to the vehicle control.

The conditions of data set [1]: mouse, in vivo, 20 mg/kg. The procedure: Mice were weighed and tumours measured 2-3 times weekly using electronic callipers. Tumour volume (mm^3) was calculated as length (mm)/2×width (mm)^2. One week following implantation mice with similar sized tumours (mean tumour volume 56 mm^3) were randomised into 4 groups of 6 animals (Day 1). Treatment groups were saline+control antibody, PG545+control antibody, saline+anti-PD-1 and PG545+anti-PD-1.
[…] Mice received a small dish containing a food supplement (Ensure mixed with food dust) daily.
In FIG. 1, the data represent the mean percent weight change from day 1 for each group; bars are standard error of the mean (SEM). […] It was decided to harvest the experiment on day 18.

A further data set has as its system dendritic cell (DC). The note with it: cited from earlier work.
Data set [2] concerns tumour-associated macrophages (TAMs) and myeloid-derived suppressor cells (MDSCs). The conditions noted are these: preclinical pancreatic cancer models, chemically-induced skin cancer model; cited from earlier work.
A further data set has as its system advanced solid tumours. The conditions noted are these: cited from earlier work.

Regarding `CC(C)CCC[C@@H](C)[C@H]1CC[C@H]2[C@@H]3CC[C@H]4C[C@@H](O[C@@H]5O[C@H](COS(=O)(=O)[O-])[C@@H](O[C@H]6O[C@H](COS(=O)(=O)[O-])[C@@H](O[C@H]7O[C@H](COS(=O)(=O)[O-])[C@@H](O[C@H]8O[C@H](COS(=O)(=O)[O-])[C@@H](OS(=O)(=O)[O-])[C@H](OS(=O)(=O)[O-])[C@H]8OS(=O)(=O)[O-])[C@H](OS(=O)(=O)[O-])[C@H]7OS(=O)(=O)[O-])[C@H](OS(=O)(=O)[O-])[C@H]6OS(=O)(=O)[O-])[C@H](OS(=O)(=O)[O-])[C@H]5OS(=O)(=O)[O-])CC[C@]4(C)[C@H]3CC[C@]12C.[Na+].[Na+].[Na+].[Na+].[Na+].[Na+].[Na+].[Na+].[Na+].[Na+].[Na+].[Na+].[Na+]` [PG545, 3β,5α-Cholestanyl 2,3,4,6-tetra-O-sodium sulfonato-α-D-glucopyranosyl-(1→4)-2,3,6-tri-O-sodium sulfonato-α-D-glucopyranosyl-(1→4)-2,3,6-tri-O-sodium sulfonato-α-D-glucopyranosyl-(1→4)-2,3,6-tri-O-sodium sulfonato-β-D-glucopyranoside], in the data set with 4T1.2 tumours, the “Tumour growth inhibition (% TGI)” value turned out to be 68%. Moreover, the “Tolerability (maximum tolerated dose issues)” value in data set [1] is listed as “body weight issues”. Further, in the data set on dendritic cell (DC) (PG545 alone, naïve mice and mice bearing A20 lymphoma tumours), the “Activation of T cells” value was “does not activate T cells”. The “Activation of NK cells” value in the data set with dendritic cell (DC) (via effect on DCs) is reported as “potent activation”. For the same molecule, the “TAMs and MDSCs within the tumour microenvironment” value in data set [2] was “depletion”. In addition, the “Reductions in tumour size” value with advanced solid tumours (PG545 monotherapy) is listed as “did not lead to reductions in tumour size”. Moreover, the Maximum tolerated dose with advanced solid tumours (once weekly IV infusion, patients with advanced solid tumours) is recorded as 100 mg.
